Experimental data reported in patent publication US20230398130A1, “METHODS AND COMPOSITIONS FOR DIFFERENTIATING STEM CELLS” (Massachusetts Institute of Technology, priority 2020, published 2023).

Assays:
ISC-enriched organoids [1] = assay: Primary screen, 384-well 2.5-D organoid differentiation (ENR+CD, 6 days): basal lysozyme secretion (LYZ.NS); format: cell-based, murine; details: primary screen; for Dose.FC.LYZ.NS: FC vs plate median; for Z.LYZ.NS: standard z score; for SSMD.LYZ.NS: strictly standardized mean difference
Description: (§1) High-throughput screening.

ISC-enriched organoids [2] = assay: Primary screen, 384-well 2.5-D organoid differentiation (ENR+CD, 6 days, Target Selective Inhibitor Library, vs whole-plate median): ATP (CellTiter-Glo 3D, CTG); details: primary screen; for Dose.FC.CTG: FC vs plate median; for Z.CTG: standard z score; for SSMD.CTG: strictly standardized mean difference
ISC-enriched organoids [3] = assay: Primary screen, 384-well 2.5-D organoid differentiation (ENR+CD, 6 days): carbachol-induced lysozyme secretion (LYZ.S); format: cell-based, murine; details: primary screen; for Dose.FC.LYZ.S: FC vs plate median; for Z.LYZ.S: standard z score; for SSMD.LYZ.S: strictly standardized mean difference
Description: as §1

[4] = 1st of the 4 dose lines of the treatment (dose not given)
[5] = 2nd of the 4 dose lines of the treatment (dose not given)
[6] = 3rd of the 4 dose lines of the treatment (dose not given)
[7] = 4th of the 4 dose lines of the treatment (dose not given)

SMILES	SSMD.LYZ.NS (ISC-enriched organoids [1]; [4])	SSMD.LYZ.NS (ISC-enriched organoids [1]; [5])	SSMD.LYZ.NS (ISC-enriched organoids [1]; [6])	SSMD.LYZ.NS (ISC-enriched organoids [1]; [7])	Z.CTG (ISC-enriched organoids [2]; Dose 0.08 uM)	Z.CTG (ISC-enriched organoids [2]; Dose 0.40 uM)	Z.CTG (ISC-enriched organoids [2]; Dose 2.00 uM)	Z.CTG (ISC-enriched organoids [2]; Dose 10.00 uM)	SSMD.CTG (ISC-enriched organoids [2]; [4])	SSMD.CTG (ISC-enriched organoids [2]; [5])	SSMD.CTG (ISC-enriched organoids [2]; [6])	SSMD.CTG (ISC-enriched organoids [2]; [7])	Z.LYZ.S (ISC-enriched organoids [3]; [4])	Z.LYZ.S (ISC-enriched organoids [3]; [5])	Z.LYZ.S (ISC-enriched organoids [3]; [6])	Z.LYZ.S (ISC-enriched organoids [3]; [7])	SSMD.LYZ.S (ISC-enriched organoids [3]; [4])	SSMD.LYZ.S (ISC-enriched organoids [3]; [5])	SSMD.LYZ.S (ISC-enriched organoids [3]; [6])	SSMD.LYZ.S (ISC-enriched organoids [3]; [7])	other results
Cc1c(C(=O)Nc2ccc(N3C[C@@H](C)O[C@@H](C)C3)nc2)cccc1-c1ccc(OC(F)(F)F)cc1 [LDE225 (NVP-LDE225, Erismodegib)]	0.869	0.731	0.074	0.268	0.255	0.159	0.546	−0.002	0.313	0.163	0.681	−0.001	0.613	0.481	0.013	0.038	0.704	0.415	0.013	0.025	Dose.FC.LYZ.NS (ISC-enriched organoids [1]; Dose 0.08 uM): 0.085 log 2 fold change; Z.LYZ.NS (ISC-enriched organoids [1]; Dose 0.08 uM): 0.739; Dose.FC.LYZ.NS (ISC-enriched organoids [1]; Dose 0.40 uM): 0.101 log 2 fold change; Z.LYZ.NS (ISC-enriched organoids [1]; Dose 0.40 uM): 0.881; Dose.FC.LYZ.NS (ISC-enriched organoids [1]; Dose 2.00 uM): 0.011 log 2 fold change; Z.LYZ.NS (ISC-enriched organoids [1]; Dose 2.00 uM): 0.094; Dose.FC.LYZ.NS (ISC-enriched organoids [1]; Dose 10.00 uM): 0.049 log 2 fold change; Z.LYZ.NS (ISC-enriched organoids [1]; Dose 10.00 uM): 0.426; Dose.FC.CTG (ISC-enriched organoids [2]; Dose 0.08 uM): 0.107 log 2 fold change; Dose.FC.CTG (ISC-enriched organoids [2]; Dose 0.40 uM): 0.067 log 2 fold change; Dose.FC.CTG (ISC-enriched organoids [2]; Dose 2.00 uM): 0.229 log 2 fold change; Dose.FC.CTG (ISC-enriched organoids [2]; Dose 10.00 uM): −0.001 log 2 fold change; Dose.FC.LYZ.S (ISC-enriched organoids [3]; Dose 0.08 uM): 0.095 log 2 fold change; Dose.FC.LYZ.S (ISC-enriched organoids [3]; Dose 0.40 uM): 0.074 log 2 fold change; Dose.FC.LYZ.S (ISC-enriched organoids [3]; Dose 2.00 uM): 0.002 log 2 fold change; Dose.FC.LYZ.S (ISC-enriched organoids [3]; Dose 10.00 uM): 0.006 log 2 fold change
Cc1cc(Nc2ncc(Cl)c(Nc3ccccc3S(=O)(=O)C(C)C)n2)c(OC(C)C)cc1C1CCNCC1 [LDK378]	0.246	−0.527	−1.818	−2.550	0.322	0.010	−0.869	−3.087	0.320	0.013	−0.596	−1.329	0.763	−0.306	−1.817	−3.149	0.574	−0.290	−1.400	−2.075	–
c1cc(-c2cnn3cc(-c4ccc(N5CCNCC5)cc4)cnc23)c2cccnc2c1 [LDN-212854]	0.567	0.395	−1.438	−1.649	0.568	0.309	−1.134	−3.018	0.686	0.242	−1.244	−1.589	1.050	0.167	−1.888	−2.582	0.799	0.136	−1.525	−1.672	Dose.FC.LYZ.NS (ISC-enriched organoids [1]; Dose 0.08 uM): 0.095 log 2 fold change; Z.LYZ.NS (ISC-enriched organoids [1]; Dose 0.08 uM): 0.823; Dose.FC.LYZ.NS (ISC-enriched organoids [1]; Dose 0.40 uM): 0.051 log 2 fold change; Z.LYZ.NS (ISC-enriched organoids [1]; Dose 0.40 uM): 0.446; Dose.FC.LYZ.NS (ISC-enriched organoids [1]; Dose 2.00 uM): −0.217 log 2 fold change; Z.LYZ.NS (ISC-enriched organoids [1]; Dose 2.00 uM): −1.885; Dose.FC.LYZ.NS (ISC-enriched organoids [1]; Dose 10.00 uM): −0.273 log 2 fold change; Z.LYZ.NS (ISC-enriched organoids [1]; Dose 10.00 uM): −2.375; Dose.FC.CTG (ISC-enriched organoids [2]; Dose 0.08 uM): 0.238 log 2 fold change; Dose.FC.CTG (ISC-enriched organoids [2]; Dose 0.40 uM): 0.129 log 2 fold change; Dose.FC.CTG (ISC-enriched organoids [2]; Dose 2.00 uM): −0.475 log 2 fold change; Dose.FC.CTG (ISC-enriched organoids [2]; Dose 10.00 uM): −1.263 log 2 fold change; Dose.FC.LYZ.S (ISC-enriched organoids [3]; Dose 0.08 uM): 0.162 log 2 fold change; Dose.FC.LYZ.S (ISC-enriched organoids [3]; Dose 0.40 uM): 0.026 log 2 fold change; Dose.FC.LYZ.S (ISC-enriched organoids [3]; Dose 2.00 uM): −0.292 log 2 fold change; Dose.FC.LYZ.S (ISC-enriched organoids [3]; Dose 10.00 uM): −0.399 log 2 fold change
C[C@H](NC(=O)[C@@H](O)c1cc(F)cc(F)c1)C(=O)N[C@@H]1C(=O)N(C)c2ccccc2-c2ccccc21 [LY411575]	0.217	−0.432	−0.593	−0.931	0.083	−0.411	−0.412	−0.618	0.086	−0.312	−0.389	−0.550	0.155	0.266	−0.590	−1.015	0.094	0.171	−0.596	−0.917	Dose.FC.LYZ.NS (ISC-enriched organoids [1]; Dose 0.08 uM): 0.040 log 2 fold change; Z.LYZ.NS (ISC-enriched organoids [1]; Dose 0.08 uM): 0.347; Dose.FC.LYZ.NS (ISC-enriched organoids [1]; Dose 0.40 uM): −0.050 log 2 fold change; Z.LYZ.NS (ISC-enriched organoids [1]; Dose 0.40 uM): −0.434; Dose.FC.LYZ.NS (ISC-enriched organoids [1]; Dose 2.00 uM): −0.069 log 2 fold change; Z.LYZ.NS (ISC-enriched organoids [1]; Dose 2.00 uM): −0.598; Dose.FC.LYZ.NS (ISC-enriched organoids [1]; Dose 10.00 uM): −0.109 log 2 fold change; Z.LYZ.NS (ISC-enriched organoids [1]; Dose 10.00 uM): −0.949; Dose.FC.CTG (ISC-enriched organoids [2]; Dose 0.08 uM): 0.035 log 2 fold change; Dose.FC.CTG (ISC-enriched organoids [2]; Dose 0.40 uM): −0.172 log 2 fold change; Dose.FC.CTG (ISC-enriched organoids [2]; Dose 2.00 uM): −0.172 log 2 fold change; Dose.FC.CTG (ISC-enriched organoids [2]; Dose 10.00 uM): −0.259 log 2 fold change; Dose.FC.LYZ.S (ISC-enriched organoids [3]; Dose 0.08 uM): 0.024 log 2 fold change; Dose.FC.LYZ.S (ISC-enriched organoids [3]; Dose 0.40 uM): 0.041 log 2 fold change; Dose.FC.LYZ.S (ISC-enriched organoids [3]; Dose 2.00 uM): −0.091 log 2 fold change; Dose.FC.LYZ.S (ISC-enriched organoids [3]; Dose 10.00 uM): −0.157 log 2 fold change
Cc1cccc(-c2nn3c(c2-c2ccnc4ccc(C(N)=O)cc24)CCC3)n1 [LY2157299]	0.656	0.737	0.827	1.243	0.218	0.328	0.041	0.226	0.343	0.369	0.048	0.314	1.209	1.287	0.731	1.441	1.145	1.157	0.808	1.219	Dose.FC.LYZ.NS (ISC-enriched organoids [1]; Dose 0.08 uM): 0.227 log 2 fold change; Z.LYZ.NS (ISC-enriched organoids [1]; Dose 0.08 uM): 1.973; Dose.FC.LYZ.NS (ISC-enriched organoids [1]; Dose 0.40 uM): 0.140 log 2 fold change; Z.LYZ.NS (ISC-enriched organoids [1]; Dose 0.40 uM): 1.221; Dose.FC.LYZ.NS (ISC-enriched organoids [1]; Dose 2.00 uM): 0.092 log 2 fold change; Z.LYZ.NS (ISC-enriched organoids [1]; Dose 2.00 uM): 0.799; Dose.FC.LYZ.NS (ISC-enriched organoids [1]; Dose 10.00 uM): 0.162 log 2 fold change; Z.LYZ.NS (ISC-enriched organoids [1]; Dose 10.00 uM): 1.408; Dose.FC.CTG (ISC-enriched organoids [2]; Dose 0.08 uM): 0.091 log 2 fold change; Dose.FC.CTG (ISC-enriched organoids [2]; Dose 0.40 uM): 0.137 log 2 fold change; Dose.FC.CTG (ISC-enriched organoids [2]; Dose 2.00 uM): 0.017 log 2 fold change; Dose.FC.CTG (ISC-enriched organoids [2]; Dose 10.00 uM): 0.095 log 2 fold change; Dose.FC.LYZ.S (ISC-enriched organoids [3]; Dose 0.08 uM): 0.187 log 2 fold change; Dose.FC.LYZ.S (ISC-enriched organoids [3]; Dose 0.40 uM): 0.199 log 2 fold change; Dose.FC.LYZ.S (ISC-enriched organoids [3]; Dose 2.00 uM): 0.113 log 2 fold change; Dose.FC.LYZ.S (ISC-enriched organoids [3]; Dose 10.00 uM): 0.223 log 2 fold change
